# Test results from PMC10820135, “Pharmacokinetic, Tissue Distribution, Metabolite, and Toxicity Evaluation of the Matrine Derivative, (6aS, 10S, 11aR, 11bR, 11cS)-10-Methylaminododecahydro-3a, 7a-Diaza-benzo (de) Anthracene-8-thione” (Molecules, 2024).
# Tests used:
# [1] = Metabolite profiling of MASM in rats by UHPLC-QQQ-MS/MS; type: in vivo, Sprague-Dawley rats; settings: rat
# Experimental: The identification of the in vivo metabolites of MASM was conducted using UHPLC-QQQ-MS/MS combined with standard references and deuterium-labeled MASM. The findings are presented in Table 2, while the proposed primary metabolic pathway of MASM in rats is depicted in Figure 4. To provide a comprehensive understanding of the metabolite identification process, three representative metabolites of MASM are presented, with their identification relying on primary and secondary mass spectrometry data, standard references, and deuterium-labeled MASM. The remaining metabolites are detailed in Supplementary File S4. For instance, the identification of the metabolite, M1, as a demethylation product of MASM was accomplished through the utilization of MS, MS/MS data, and the standard reference. […] Moreover, the identification of M1 as the demethylation metabolite of MASM was accomplished using the standard reference synthesized in our laboratory. […] Secondly, the metabolite, M2, of MASM was identified as the dehydrogenation product of MASM through the utilization of MS and MS/MS data. […] Consequently, M2 was identified as a dehydrogenation metabolite of M1. Thirdly, through the utilization of MS, MS/MS data, and deuterium-labeled MASM, the metabolite, M8, of MASM was determined to be a dehydrogenation product of MASM. […] The major MS/MS fragment ions of M8 were found at m/z 111.92, 178.77, 150.16, and 135.85, which aligned with the characteristic cleavage pattern of matrine. Additionally, our lab synthesized deuterium-labeled MASM to further support our proposed structure. […] Consequently, M8 was identified as a dehydrogenation metabolite of MASM. The EIC, MS/MS spectrum of M8 and deuterium-labeled MASM are all depicted in Figure 5C.
# UHPLC analysis was performed using a Thermo Accela AS system, employing an ACQUITY UPLC®BEH C18 (Waters Corporation, Wexfords, Ireland) (1.7 µm, 2.1 × 100 mm) column and a binary solvent system consisting of water containing 0.1% formic acid as mobile phase A and acetonitrile as mobile phase B. For pharmacokinetic evaluation, the gradient elution was set as follows: 97% A from 0 to 2 min, 97–70% A from 2 to 3 min, 70–20% A from 3 to 3.5 min, 20% A from 3.5 to 3.6 min, 20–97% A from 3.6 to 3.7 min, and 97% A from 3.7 to 5 min. For the metabolic test, the gradient elution in full scan mode was set as follows: 97% A from 0 to 2 min, 97–70% A from 2 to 4 min, 70–20% A from 4 to 6 min, 20% A from 6 to 7 min, 20–97% A from 7 to 8 min, and 97% A from 8 to 10 min. The flow rate was 0.2 mL/min, with a temperature of 40 °C maintained and an injection volume of 5 μL. The QQQ-MS/MS analysis was conducted using a Thermo TSQ QUANTUM ACCESS MAX system equipped with an electrospray ionization (ESI) source. The spray voltages were set at 4.0 kV and 2.5 kV for positive and negative ion modes, respectively; capillary and vaporizer temperatures were 320 °C and 350 °C, respectively; sheath and aux gas pressures were 35 and 10 psi, respectively.
# Seventy Sprague-Dawley rats were fasted overnight before dosing, with free access to water. Subsequently, the rats were randomly and equally divided into 7 groups: the control groups received 3 different routes of administration: intravenous, intraperitoneal, and intragastric (NS, saline 1 mL/100 g); MASM intraperitoneal group (A, i.p. 80 mg/kg), MASM intragastrical group (B, i.g. 60 mg/kg), MASM intravenous group (C, i.v. 15 mg/kg), and DMASM intragastrical group (D, i.g. 60 mg/kg). It is important to note that the recommended clinical dose of matrine injection is 0.15 g, which is equivalent to a dosage of 15 mg/kg in rats. MASM was administered via tail vein injection at a dosage of 1 mL/100 g for intravenous dosing, while for intraperitoneal dosing, MASM was injected at the lower-right side of the abdomen of rats. […]
# [2] = Stability of MASM in plasma QC samples; type: in vitro ADME; settings: QC samples: autosampler 4℃ 8 h, -80℃ 30 days, three freeze-thaw cycles
# Experimental: determined by calculating the RSD of 6 samples analyzed on the same day, while the inter-day precision was determined by calculating the RSD of 3 analytical batches analyzed over 3 consecutive days.
# 1.4 Extraction recovery and matrix effect
# The extraction recovery was in assessed by comparing the peak area of the blank […]
# i n E q . […]
# Extraction recovery=Ap/Ax×100% Eq. (1)
# Matrix effect=Ax/As×100% Eq. (2)
# Ap: 10 μl of high (H), medium (M), and low (L) concentration of standard solution and 300 μl of IS were added to 90 μl of blank plasma, respectively, then pre-processed by sample pretreatment method and injected to obtain the peak area A p. […]
# The stability of analytes in plasma was assessed by analyzing peak area in three different concentration QC samples. The long-term stability was evaluated by analyzing samples that had been stored at a temperature of -80℃ for a duration of 30 days. […]
# freeze-thaw stability was assessed by analyzing samples that had undergone three freeze-thaw cycles, transitioning from a temperature of -80℃ to 25℃. Post-preparative stability was assessed by analyzing samples that had been stored in the autosampler at 4℃ for a duration of 8 h. […]
# 0.990 across the relevant concentration ranges (Supplementary Table S1). The lower limit of the quantitation (LLOQ) was determined to be 5.03 ng/ml. […]
smiles,measurement,setting,value
"CNC1CC(=S)N2CC3CCCN4CCCC(C34)C2C1 [MASM, (6aS, 10S, 11aR, 11bR, 11cS)-10-methylaminododecahydro-3a, 7a-diaza-benzo (de) anthracene-8-thione]",number of in vivo metabolites identified,[1],10
same,primary metabolic reactions (phase I),[1],"oxidation, reduction, and hydroxylation"
same,stability in plasma,[2],stable
